According to ChEMBL document CHEMBL1133192, “sp2-bridged diaryl retinoids: effects of bridge-region substitution on retinoid X receptor (RXR) selectivity” (Bioorg Med Chem Lett, 2000):
Each block holds one molecule with its values, some of them ahead of it. Active and inactive are the calls of the source. The rule behind the calls is not given here.

Tests used:
[1] = biological target: T1, Retinoic acid receptor RXR-alpha (Homo sapiens, UniProt P19793); assay: Transcriptional activation in CV-1 cells expressing Retinoid X receptor RXR-alpha; type: cell-based, Cercopithecidae
T1 sequence (P19793 whole entry): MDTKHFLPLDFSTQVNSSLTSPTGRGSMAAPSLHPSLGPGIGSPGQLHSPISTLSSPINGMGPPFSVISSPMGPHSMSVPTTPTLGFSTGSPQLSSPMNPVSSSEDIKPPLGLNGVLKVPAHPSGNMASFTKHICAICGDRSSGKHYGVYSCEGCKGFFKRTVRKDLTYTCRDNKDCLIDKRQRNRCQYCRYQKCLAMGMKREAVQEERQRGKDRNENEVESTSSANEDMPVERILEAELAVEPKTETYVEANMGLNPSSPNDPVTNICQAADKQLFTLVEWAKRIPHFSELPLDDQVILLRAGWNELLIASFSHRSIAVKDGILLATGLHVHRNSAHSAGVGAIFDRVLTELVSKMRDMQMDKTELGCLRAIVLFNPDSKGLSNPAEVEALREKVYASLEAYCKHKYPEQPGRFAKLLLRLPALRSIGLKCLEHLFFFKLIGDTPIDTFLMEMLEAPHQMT

[2] = biological target: T1, Retinoic acid receptor RXR-alpha; assay: Transcriptional activation in CV-1 expressing retinoid X receptor RXR alpha
MDA-MB-231 [3] = assay: Inhibition of MDA-MB-231 cell proliferation after seven days; type: functional, cell-based; settings: Homo sapiens, MDA-MB-231, 168 h
MDA-MB-231 [4] = assay: Effect on MDA-MB-231 cell proliferation; No effect; type: functional, cell-based; settings: Homo sapiens
MDA-MB-231 [5] = assay: Effect on MDA-MB-231 cell proliferation with compound 8; Significant inhibition; type: functional, cell-based; settings: Homo sapiens
MDA-MB-231 [6] = assay: Inhibition of MDA-MB-231 cell proliferation after seven days at 12.5 uM; type: functional; settings: Homo sapiens, MDA-MB-231, 168 h
[7] = biological target: T2, Retinoic acid receptor alpha (Homo sapiens) (UniProt P10276); assay: Percent transcriptional activation of Retinoic acid receptor RAR alpha at 1 uM compared to 1 uM trans-retinoic acid
T2 sequence (whole entry): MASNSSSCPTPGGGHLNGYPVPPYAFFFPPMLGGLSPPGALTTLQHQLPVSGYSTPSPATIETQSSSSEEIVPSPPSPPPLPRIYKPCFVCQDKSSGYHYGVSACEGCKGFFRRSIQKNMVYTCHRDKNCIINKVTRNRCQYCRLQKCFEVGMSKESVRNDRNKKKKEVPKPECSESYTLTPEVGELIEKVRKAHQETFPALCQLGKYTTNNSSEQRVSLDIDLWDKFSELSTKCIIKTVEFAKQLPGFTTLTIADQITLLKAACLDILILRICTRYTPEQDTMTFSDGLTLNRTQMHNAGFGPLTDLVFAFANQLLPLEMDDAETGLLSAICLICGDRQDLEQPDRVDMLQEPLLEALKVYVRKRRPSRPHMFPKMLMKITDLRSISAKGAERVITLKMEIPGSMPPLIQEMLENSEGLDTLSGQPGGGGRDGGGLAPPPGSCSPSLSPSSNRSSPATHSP

[8] = biological target: T3, Retinoic acid receptor gamma (Homo sapiens) (UniProt P13631); assay: Percent transcriptional activation of Retinoic acid receptor RAR gamma receptor at 1 uM compared to 1 uM trans-retinoic acid
T3 sequence (whole entry): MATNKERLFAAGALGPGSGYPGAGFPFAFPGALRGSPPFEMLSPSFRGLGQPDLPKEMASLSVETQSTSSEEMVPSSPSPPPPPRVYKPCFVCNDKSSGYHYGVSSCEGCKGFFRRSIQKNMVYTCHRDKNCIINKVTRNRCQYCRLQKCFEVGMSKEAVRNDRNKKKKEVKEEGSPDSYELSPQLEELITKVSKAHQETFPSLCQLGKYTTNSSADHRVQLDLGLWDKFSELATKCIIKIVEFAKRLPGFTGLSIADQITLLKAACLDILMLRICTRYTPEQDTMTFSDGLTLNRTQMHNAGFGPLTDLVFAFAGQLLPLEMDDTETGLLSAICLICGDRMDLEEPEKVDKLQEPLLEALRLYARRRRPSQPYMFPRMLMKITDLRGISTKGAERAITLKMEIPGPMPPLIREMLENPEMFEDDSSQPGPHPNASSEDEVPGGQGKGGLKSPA

[9] = biological target: T4, Retinoic acid receptor beta (Homo sapiens) (UniProt P10826); assay: Percent transcriptional activation of Retinoic acid receptor beta at 1 uM compared to 1 uM trans-retinoic acid
T4 sequence (whole entry): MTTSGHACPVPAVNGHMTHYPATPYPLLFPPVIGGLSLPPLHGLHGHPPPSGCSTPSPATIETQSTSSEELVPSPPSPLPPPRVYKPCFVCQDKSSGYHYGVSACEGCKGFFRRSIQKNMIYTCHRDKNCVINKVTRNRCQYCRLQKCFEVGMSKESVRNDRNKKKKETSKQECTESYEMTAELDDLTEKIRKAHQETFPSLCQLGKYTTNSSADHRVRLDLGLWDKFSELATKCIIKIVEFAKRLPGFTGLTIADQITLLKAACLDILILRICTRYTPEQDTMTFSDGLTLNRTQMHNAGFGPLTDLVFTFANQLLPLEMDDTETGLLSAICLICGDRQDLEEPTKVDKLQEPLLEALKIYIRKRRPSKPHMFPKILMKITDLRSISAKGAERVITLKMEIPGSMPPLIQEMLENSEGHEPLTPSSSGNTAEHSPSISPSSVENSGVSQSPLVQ

MDA-MB-231 [10] = assay: Effect on MDA-MB-231 cell proliferation with trans-RA; No inhibition; type: functional, cell-based; settings: Homo sapiens
MDA-MB-231 [11] = assay: Effect on MDA-MB-231 cell proliferation; No inhibition; type: functional, cell-based; settings: Homo sapiens

Structure (SMILES): Cc1cc2c(cc1C(=C1CC1)c1ccc(C(=O)O)cc1)C(C)(C)CCC2(C)C
AC50 [1]: < 10 nM

Structure (SMILES): CC1(C)CCC(C)(C)c2cc(-c3cccc4cc(C(=O)O)ccc34)ccc21
AC50 [2]: > 1000 nM

Structure (SMILES): CC1=C(/C=C/C(C)=C/C=C/C(C)=C/C(=O)O)C(C)(C)CCC1
Activity (MDA-MB-231 [4]): inactive
Activity (MDA-MB-231 [5]): Active

Structure (SMILES): CC1=C(/C=C/C(C)=C\C=C\C(C)=C\C(=O)O)C(C)(C)CCC1 [ALITRETINOIN]
inhibition at 12.5 µM (MDA-MB-231 [6]): 45%
Activation [7]: 105%
Activation [8]: 126%
Activation [9]: 112%

Structure (SMILES): CC(C)=C(c1ccc(C(=O)O)cc1)c1cc2c(cc1C)C(C)(C)CCC2(C)C
AC50 [1]: 22 nM
Activity (MDA-MB-231 [10]): inactive
Activity (MDA-MB-231 [11]): inactive

Results, then the molecule that gave them:

AC50 [1]: > 1000 nM
Structure (SMILES): CC(C)/C=C(/c1ccc(C(=O)O)cc1)c1ccc2c(c1)C(C)(C)CCC2(C)C

AC50 [1]: 160 nM
Structure (SMILES): CC(C)=C(c1ccc(C(=O)O)cc1)c1ccc2c(c1)C(C)(C)CCC2(C)C

AC50 [1]: 5 nM
IC50 (MDA-MB-231 [3]): 1100 nM
Structure (SMILES): CC1(C)CCC(C)(C)c2cc(C(=C3CC3)c3ccc(C(=O)O)cc3)ccc21
